According to patent publication US7799809B2, “Carboxamide compounds and their use as calpain inhibitors” (Abbott GmbH & Co. KG, priority 2006, dated 2010):

Legend:
Type in all cases: biochemical
cathepsin B = molecular target: T1, cathepsin B (Homo sapiens, UniProt P07858); test: Cathepsin B enzyme inhibition in vitro (kinetic fluorescence assay); details: cathepsin B isolated from human liver vs calpain I
T1 construct: cathepsin B—isolated from human liver (Calbiochem #219362); purchased Calbiochem 219362; host or cells: human liver (tissue-derived)
How it was run: (§1)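 Kinetic fluorescence (ex 390/em 460 nm) at room temperature in 50 mM MES, 2 mM EDTA, 0.05% Brij 35, 2.5 mM L-cysteine, pH 6.0. Cathepsin B (liver, 0.25 nM) with 100 μM Z-Phe-Arg-AMC; cathepsin L (liver, 1 nM) with 2 μM Z-Phe-Arg-AMC; recombinant E. coli cathepsin S (0.5 nM) with 20 μM Z-Val-Val-Arg-AMC. Ki via Cheng-Prusoff.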

cathepsin K = molecular target: T2, cathepsin K (Homo sapiens, UniProt P43235); test: Cathepsin K enzyme inhibition in vitro (kinetic fluorescence assay); details: cathepsin K activated from recombinant human procathepsin K vs calpain I
T2 construct: purchased Calbiochem 342001; host or cells: E. coli
T2 sequence (P43235 115-329): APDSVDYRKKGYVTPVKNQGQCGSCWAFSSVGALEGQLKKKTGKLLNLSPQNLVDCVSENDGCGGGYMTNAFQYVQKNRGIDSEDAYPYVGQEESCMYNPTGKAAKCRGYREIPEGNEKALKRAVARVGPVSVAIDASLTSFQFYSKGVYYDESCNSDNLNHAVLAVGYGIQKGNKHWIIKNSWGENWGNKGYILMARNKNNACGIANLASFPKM

cathepsin L = molecular target: T3, cathepsin L (Homo sapiens, UniProt P07711); test: Cathepsin L enzyme inhibition in vitro (kinetic fluorescence assay); details: cathepsin L isolated from human liver vs calpain I
T3 construct: cathepsin L—isolated from human liver (Calbiochem #219402); purchased Calbiochem 219402; host or cells: human liver (tissue-derived)
How it was run: as §1

cathepsin S = molecular target: T4, cathepsin S (Homo sapiens, UniProt P25774); test: Cathepsin S enzyme inhibition in vitro (kinetic fluorescence assay); details: recombinant human cathepsin S vs calpain I
T4 construct: purchased Calbiochem 219343; host or cells: E. coli
How it was run: as §1

T3 sequence (P07711 114-333): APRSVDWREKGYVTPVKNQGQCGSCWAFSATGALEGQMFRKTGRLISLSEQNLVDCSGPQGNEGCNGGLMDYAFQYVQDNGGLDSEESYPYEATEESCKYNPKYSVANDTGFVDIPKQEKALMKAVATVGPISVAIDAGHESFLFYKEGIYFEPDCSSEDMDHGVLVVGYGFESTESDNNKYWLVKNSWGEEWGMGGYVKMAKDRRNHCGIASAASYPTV
T4 sequence (P25774 115-331): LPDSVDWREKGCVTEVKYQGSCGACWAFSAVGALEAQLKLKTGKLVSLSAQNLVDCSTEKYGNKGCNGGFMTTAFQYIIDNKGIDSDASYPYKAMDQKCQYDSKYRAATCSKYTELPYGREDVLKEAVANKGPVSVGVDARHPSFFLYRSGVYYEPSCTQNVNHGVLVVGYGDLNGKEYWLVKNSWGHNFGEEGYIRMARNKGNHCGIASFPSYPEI

Compound | Sel cat. B: Ki(cathepsin B)/Ki(calpain) ratio (cathepsin B) | Sel cat. K: Ki(cathepsin K)/Ki(calpain) ratio (cathepsin K) | Sel cat. L: Ki(cathepsin L)/Ki(calpain) ratio (cathepsin L) | Sel cat. S: Ki(cathepsin S)/Ki(calpain) ratio (cathepsin S)
CC(C)c1ccc(-c2ccn(-c3ncccc3C(=O)NC(Cc3ccccc3)C(=O)C(N)=O)n2)cc1 (stereo not drawn) [Example 87, N-[3-Amino-2,3-dioxo-1-(phenylmethyl)propyl]-2-{3-[4-(1-methylethyl)phenyl]-1H-pyrazol-1-yl}pyridine-3-carboxamide] | ++ (++ means a Ki(cathepsin B)/Ki(calpain) ratio of ≧30) | ++ (++ means a Ki(cathepsin K)/Ki(calpain) ratio of ≧30) | ++ (++ means a Ki(cathepsin L)/Ki(calpain) ratio of ≧50) | ++ (++ means a Ki(cathepsin S)/Ki(calpain) ratio of ≧100)
NC(=O)C(=O)C(Cc1ccccc1)NC(=O)c1cccnc1-n1ccc(-c2cc(Cl)ccc2Cl)n1 (stereo not drawn) [Example 112, N-[3-Amino-2,3-dioxo-1-(phenylmethyl)propyl]-2-[3-(2,5-dichlorophenyl)-1H-pyrazol-1-yl]pyridine-3-carboxamide] | ++ (++ means a Ki(cathepsin B)/Ki(calpain) ratio of ≧30) | ++ (++ means a Ki(cathepsin K)/Ki(calpain) ratio of ≧30) | ++ (++ means a Ki(cathepsin L)/Ki(calpain) ratio of ≧50) | ++ (++ means a Ki(cathepsin S)/Ki(calpain) ratio of ≧100)
COc1ccc(CC(NC(=O)c2cccnc2-n2ccc(-c3ccc(F)cc3OC)n2)C(=O)C(N)=O)cc1 (stereo not drawn) [Example 136, N-(3-Amino-1-{[4-(methyloxy)phenyl]methyl}-2,3-dioxopropyl)-2-{3-[4-fluoro-2-(methyloxy)phenyl]-1H-pyrazol-1-yl}pyridine-3-carboxamide] | ++ (++ means a Ki(cathepsin B)/Ki(calpain) ratio of ≧30) | ++ (++ means a Ki(cathepsin K)/Ki(calpain) ratio of ≧30) | ++ (++ means a Ki(cathepsin L)/Ki(calpain) ratio of ≧50) | ++ (++ means a Ki(cathepsin S)/Ki(calpain) ratio of ≧100)
NC(=O)C(=O)C(Cc1ccccc1)NC(=O)c1cccnc1-n1ccc(-c2cccc3c2OC(F)(F)O3)n1 (stereo not drawn) [Example 119, N-[3-Amino-2,3-dioxo-1-(phenylmethyl)propyl]-2-[3-(2,2-difluoro-1,3-benzodioxol-4-yl)-1H-pyrazol-1-yl]pyridine-3-carboxamide] | ++ (++ means a Ki(cathepsin B)/Ki(calpain) ratio of ≧30) | ++ (++ means a Ki(cathepsin K)/Ki(calpain) ratio of ≧30) | ++ (++ means a Ki(cathepsin L)/Ki(calpain) ratio of ≧50) | ++ (++ means a Ki(cathepsin S)/Ki(calpain) ratio of ≧100)
NC(=O)C(=O)C(Cc1ccccc1)NC(=O)c1cccnc1-n1ccc(-c2c(F)cc(F)cc2F)n1 (stereo not drawn) [Example 116, N-[3-Amino-2,3-dioxo-1-(phenylmethyl)propyl]-2-[3-(2,4,6-trifluorophenyl)-1H-pyrazol-1-yl]pyridine-3-carboxamide] | ++ (++ means a Ki(cathepsin B)/Ki(calpain) ratio of ≧30) | + (+ means 10≦Ki(cathepsin K)/Ki(calpain)<30) | ++ (++ means a Ki(cathepsin L)/Ki(calpain) ratio of ≧50) | ++ (++ means a Ki(cathepsin S)/Ki(calpain) ratio of ≧100)
NC(=O)C(=O)C(Cc1ccccc1)NC(=O)c1cccnc1-n1ccc(-c2ccc(F)cc2)n1 (stereo not drawn) [Example 38, N-(3-Amino-1-benzyl-2,3-dioxopropyl)-2-[3-(4-fluorophenyl)-1H-pyrazol-1-yl]nicotinamide] | + (+ means 10≦Ki(cathepsin B)/Ki(calpain)<30) | + (+ means 10≦Ki(cathepsin K)/Ki(calpain)<30) | ++ (++ means a Ki(cathepsin L)/Ki(calpain) ratio of ≧50) | ++ (++ means a Ki(cathepsin S)/Ki(calpain) ratio of ≧100)
